Laboratory results taken from article PMC12537693, “3-Hydroxytyrosol as a phenolic cholinesterase inhibitor with antiamnesic activity: a multimethodological study of selected plant phenolics” (Frontiers in Pharmacology, 2025).

Assays:
[1] = target: horse serum BChE (Equus caballus, UniProt P81908); assay: biochemical; assay type: biochemical; conditions: n = 3; for Enzyme inhibition (% ± SD) at 10 mM, BChE / inhibition at 10000 µM: at 10 mM; for inhibition at 10000 µM: read-out: Enzyme inhibition (% ± SD) at 10 mM, BChE
[2] = test system: scopolamine-induced amnesic mice; assay: Passive avoidance test in scopolamine-induced amnesic mice; assay type: in vivo

Sequence of horse serum BChE (P81908 whole entry): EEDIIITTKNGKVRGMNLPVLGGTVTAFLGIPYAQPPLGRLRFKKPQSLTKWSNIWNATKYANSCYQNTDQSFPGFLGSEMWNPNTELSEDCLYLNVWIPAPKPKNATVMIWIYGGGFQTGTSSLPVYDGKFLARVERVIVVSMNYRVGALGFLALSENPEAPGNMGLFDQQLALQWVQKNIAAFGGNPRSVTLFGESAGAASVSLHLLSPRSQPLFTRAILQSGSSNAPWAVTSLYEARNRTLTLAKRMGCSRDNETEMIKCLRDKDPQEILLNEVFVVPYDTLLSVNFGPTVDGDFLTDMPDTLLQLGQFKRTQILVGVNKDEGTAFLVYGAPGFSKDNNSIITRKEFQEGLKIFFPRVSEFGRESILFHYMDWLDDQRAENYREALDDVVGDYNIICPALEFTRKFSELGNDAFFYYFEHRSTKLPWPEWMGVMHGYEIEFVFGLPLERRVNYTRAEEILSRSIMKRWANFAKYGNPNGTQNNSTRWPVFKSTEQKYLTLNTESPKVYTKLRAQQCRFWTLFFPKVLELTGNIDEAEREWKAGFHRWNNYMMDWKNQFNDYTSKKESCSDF

Compound	inhibition at 10000 µM ([1]; ± SD) [%]	further results
O=c1cc(-c2ccc(O)c(-c3c(O)cc(O)c4c(=O)cc(-c5ccc(O)cc5)oc34)c2)oc2cc(O)cc(O)c12 [Amentoflavone]	< 0	Enzyme inhibition (% ± SD) at 10 mM, BChE [1]: no inhibition
O=c1cc(-c2ccc(O)cc2)oc2cc(O)cc(O)c12 [Apigenin]	< 0	
O=C(/C=C/c1ccc(O)c(O)c1)O[C@@H]1C[C@](O)(C(=O)O)C[C@@H](O)[C@H]1O [Chlorogenic acid]	25.4 ± 1.72	
O=c1oc2c(O)c(O)cc3c(=O)oc4c(O)c(O)cc1c4c23 [Ellagic acid]	< 0	Enzyme inhibition (% ± SD) at 10 mM, BChE [1]: no inhibition
O=c1c(O)c(-c2ccc(O)c(O)c2)oc2cc(O)ccc12 [Fisetin]	76.2 ± 2.48	IC50 ([1]; ± SD): 9.62 mM
O=C(O)c1cc(O)c(O)c(O)c1 [Gallic acid]	84.4 ± 2.25	Mean latency time (min) ± SEM (2nd day) ([2]; 20 mg/kg i.p., scopolamine 1 mg/kg i.p. 30 min later, 24 h after scopolamine, cutoff 9 min): 6.76 ± 1.11 min; Mean latency time (min) ± SEM (1st day) ([2]; acquisition day, before treatment, group given 20 mg/kg i.p., n = 8): 0.29 ± 0.03 min
O=c1c(-c2ccc(O)cc2)coc2cc(O)cc(O)c12 [Genistein]	< 0	
O=c1c(O)c(-c2ccc(O)cc2)oc2cc(O)cc(O)c12 [Kaempferol]	< 0	
O=c1cc(-c2ccc(O)c(O)c2)oc2cc(O)cc(O)c12 [Luteolin]	< 0	Enzyme inhibition (% ± SD) at 10 mM, BChE [1]: no inhibition
Oc1ccc(-c2[o+]c3cc(O)cc(O)c3cc2O)cc1 [Pelargonidin]	25.3 ± 4.13	
O=c1c(O)c(-c2ccc(O)c(O)c2)oc2cc(O)cc(O)c12 [Quercetin]	99.4 ± 0.76	
COc1cc(C(=O)O)ccc1O [Vanillic acid]	35.1 ± 3.21	
